Measured values reported in US4215069A, “Arylthiovinylcyclopropanecarboxylate intermediates” (FMC Corporation, priority 1979, dated 1980).

Tests used:
[1] = system: Southern armyworm; test: 7-day residual contact activity against southern armyworm (percent kill); format: in vivo; settings: Spodoptera eridania, 168 h, treated surface aged seven days in light and air, read-out: Percent Kill AW, 7-day residual activity
Method: (§1) The test compound was dissolved in a small amount of acetone, and the acetone solution was dispersed in water containing one drop of isooctylphenyl polyethoxyethanol to make a solution having 1250 ppm (w/w) active ingredient. Aliquots of this solution were diluted with an appropriate amount of water to provide solutions containing various concentrations of active ingredient. Test organisms and techniques were as follows: the activity against Mexican bean beetle (Epilachna varivestis Muls.) and southern armyworm (Spodoptera eridania [Cram.]) was evaluated by dipping the leaves of pinto bean plants into the test solution and infesting the leaves with the appropriate immature-form insects when the foliage had dried. The activity against the pea aphid (Acyrthosiphon pisum [Harris]) was evaluated on broad bean plants whose leaves were dipped before infestation with adult aphids. The activity against twospotted spider mites (Tetranychus urticae Koch) was evaluated on pinto bean plants whose leaves were dipped after infestation with adult mites. The activity against the milkweed bug (Oncopeltus faciatus [Dallas]) was evaluated by spraying the test solutions into glass dishes or jars containing the adult insects. Following application of the compound and infestation the tests were maintained in a holding room at 80° F. and 50% relative humidity for an exposure period of 72 hours. At the end of this time the dead and living insects or mites were counted and the percent kill was calculated. Results of these tests are summarized in Table I. Most of the compounds tested were active against all the insects.
(§2) The residual contact activity of certain of the compounds was determined on the same organisms using the techniques described above, except that in each case the treated surface was allowed to dry and was exposed to normal light and air for seven days before introduction of the mites or insects. The seven day residual activity was minimal for the mite but substantial against the remaining organisms. Again, the remarkable activity of some of these compounds against milkweed bug and Mexican bean beetle was noted.

[2] = system: Milkweed bug; test: 7-day residual contact activity against milkweed bug (percent kill); format: in vivo, Oncopeltus faciatus; settings: Oncopeltus fasciatus, 168 h, treated surface aged seven days in light and air, read-out: Percent Kill MWB, 7-day residual activity
Method: as §1, §2

[3] = system: southern armyworm (Spodoptera eridania [Cram.]); test: Initial contact activity against southern armyworm (percent kill); format: in vivo; settings: 72 hours exposure, read-out: Percent Kill AW, initial activity
Method: as §1

[4] = system: twospotted spider mites (Tetranychus urticae Koch); test: Initial contact activity against twospotted spider mite (percent kill); format: in vivo; settings: 72 hours exposure, read-out: Percent Kill SM, initial activity
Method: as §1

[5] = system: Twospotted spider mite; test: 7-day residual contact activity against twospotted spider mite (percent kill); format: in vivo; settings: Tetranychus urticae, 168 h, treated surface aged seven days in light and air, read-out: Percent Kill SM, 7-day residual activity
Method: as §1, §2

[6] = system: pea aphid (Acyrthosiphon pisum [Harris]); test: Initial contact activity against pea aphid (percent kill); format: in vivo; settings: 72 hours exposure, read-out: Percent Kill PA, initial activity
Method: as §1

[7] = system: milkweed bug (Oncopeltus faciatus [Dallas]); test: Initial contact activity against milkweed bug (percent kill); format: in vivo; settings: 72 hours exposure, read-out: Percent Kill MWB, initial activity
Method: as §1

[8] = system: Mexican bean beetle; test: 7-day residual contact activity against Mexican bean beetle (percent kill); format: in vivo; settings: Epilachna varivestis, 168 h, treated surface aged seven days in light and air, read-out: Percent Kill MBB, 7-day residual activity
Method: as §1, §2

[9] = system: Mexican bean beetle (Epilachna varivestis Muls.); test: Initial contact activity against Mexican bean beetle (percent kill); format: in vivo; settings: 72 hours exposure, read-out: Percent Kill MBB, initial activity
Method: as §1

[10] = system: Pea aphid; test: 7-day residual contact activity against pea aphid (percent kill); format: in vivo; settings: Acyrthosiphon pisum, 168 h, treated surface aged seven days in light and air, read-out: Percent Kill PA, 7-day residual activity
Method: as §1, §2

[11] = prior art, Elliott, et al.; cited from earlier work

With CC1(C)C(C=C(Cl)Sc2ccccc2)C1C(=O)OCc1cccc(Oc2ccccc2)c1 (mixture of isomers) [Example 4, 3-phenoxybenzyl cis,trans-3-[2-(E,Z)chloro-2-phenylthioethenyl]-2,2-dimethylcyclopropanecarboxylate] the activity at 20 ppm ([1]; 20 ppm) was 0%, the activity at 78 ppm ([1]; 78 ppm) was 5% and the activity at 312 ppm ([1]; 312 ppm) was 55%. It also gave an activity at 1250 ppm ([1]; 1250 ppm) of 95%, an activity at 312 ppm ([2]; 312 ppm) of 20% and an activity at 1250 ppm ([2]; 1250 ppm) of 100%. The mortality at 5 ppm ([3]; 5 ppm) was 11%, the mortality at 20 ppm ([3]; 20 ppm) was 0% and the mortality at 78 ppm ([3]; 78 ppm) was 68%. For the same compound, the mortality at 312 ppm ([3]; 312 ppm) was 89%, the mortality at 1250 ppm ([3]; 1250 ppm) was 100% and the mortality at 312 ppm ([4]; 312 ppm) was 31%. The mortality at 1250 ppm ([4]; 1250 ppm) was 42%, the activity at 1250 ppm [5] was 0% and the mortality at 78 ppm ([6]; 78 ppm) was 75%. For the same compound, the mortality at 312 ppm ([6]; 312 ppm) was 100%, the mortality at 1250 ppm ([6]; 1250 ppm) was 100% and the mortality at 78 ppm ([7]; 78 ppm) was 10%. For the same compound, the mortality at 312 ppm ([7]; 312 ppm) was 90%, the mortality at 1250 ppm ([7]; 1250 ppm) was 100% and the activity at 20 ppm ([8]; 20 ppm) was 89%. The activity at 78 ppm ([8]; 78 ppm) was 100%, the activity at 312 ppm ([8]; 312 ppm) was 100% and the activity at 1250 ppm ([8]; 1250 ppm) was 100%. For the same compound, the mortality at 5 ppm ([9]; 5 ppm) was 100%, the mortality at 20 ppm ([9]; 20 ppm) was 94% and the mortality at 78 ppm ([9]; 78 ppm) was 100%. It also gave a mortality at 312 ppm ([9]; 312 ppm) of 100%, a mortality at 1250 ppm ([9]; 1250 ppm) of 95% and an activity at 312 ppm ([10]; 312 ppm) of 0%. For the same compound, the activity at 1250 ppm ([10]; 1250 ppm) was 85%.

In the case of CC1(C)C(C=C(Cl)Cl)C1C(=O)OCc1cccc(Oc2ccccc2)c1 (stereo not drawn) [3-phenoxybenzyl 3-(β,β-dichlorovinyl)-2,2-dimethylcyclopropanecarboxylate], the “resistance to photo-oxidative degradation in words” value [11] is listed as “remarkably resistent to photo-oxidative degradation”.
